Patent US20160235727A1, “NOVEL PYRROLIDINE DERIVED BETA 3 ADRENERGIC RECEPTOR AGONISTS” (Merck Sharp & Dohme Corp., priority 2013, published 2016)

Biological target: T1, human β3-AR (Homo sapiens, UniProt P13945)
T1 construct: expressed in transfected cells; host or cells: CHO (Chinese hamster ovary) cells, stably transfected
Assay: cAMP functional agonist assay (LANCE TR-FRET) in CHO cells expressing cloned human β3-AR
Type: cell-based
Details: for EC50: CHO cells stably expressing cloned human β3-adrenoceptor, cAMP release, read-out: Human β3-AR Agonism EC50; for Fold drop in potency vs. 2-chloropyridine analog: EC50 of comparative example divided by EC50 of corresponding 2-chloropyridine compound; for Human β3-AR Agonist Activity (%): percent maximum activation relative to isoproterenol

T1 sequence (P13945 whole entry): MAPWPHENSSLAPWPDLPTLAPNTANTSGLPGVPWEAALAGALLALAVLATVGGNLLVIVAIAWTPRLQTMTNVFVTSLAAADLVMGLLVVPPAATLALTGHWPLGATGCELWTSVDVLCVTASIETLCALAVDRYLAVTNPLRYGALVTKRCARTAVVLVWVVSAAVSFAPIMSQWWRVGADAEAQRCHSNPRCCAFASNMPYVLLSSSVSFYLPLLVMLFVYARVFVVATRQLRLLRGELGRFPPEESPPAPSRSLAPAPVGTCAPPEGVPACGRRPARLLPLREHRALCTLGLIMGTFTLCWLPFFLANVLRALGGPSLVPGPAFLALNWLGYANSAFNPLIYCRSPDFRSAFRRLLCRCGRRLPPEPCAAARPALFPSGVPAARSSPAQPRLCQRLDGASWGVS

CN(Cc1cncc(C(C)(C)O)c1)C(=O)c1ccc(C[C@@H]2CC[C@H]([C@H](O)c3ccc(Cl)cc3)N2)cc1 [Example 32-G, 4-(((2S,5R)-5-((R)-(4-chlorophenyl)(hydroxy)methyl)pyrrolidin-2-yl)methyl)-N-((5-(2-hydroxypropan-2-yl)pyridin-3-yl)methyl)-N-methylbenzamide]
EC50: 0.016 µM
Fold drop in potency vs. 2-chloropyridine analog: 1.2 fold
Human β3-AR Agonist Activity (%): 98%

CN(Cc1cncc(C(=O)O)c1)C(=O)c1ccc(C[C@@H]2CC[C@H]([C@H](O)c3ccc(Cl)nc3)N2)cc1 [Example 33-A, 5-((4-(((2S,5R)-5-((R)-(6-chloropyridin-3-yl)(hydroxy)methyl)pyrrolidin-2-yl)methyl)-N-methylbenzamido)methyl)nicotinic acid]
EC50: 0.044 µM
Human β3-AR Agonist Activity (%): 101%

CN(Cc1cncc(C(=O)O)c1)C(=O)c1ccc(C[C@@H]2CC[C@H]([C@H](O)c3ccccc3)N2)cc1 [Example 33-B, 5-((4-(((2S,5R)-5-((R)-hydroxy(phenyl)methyl)pyrrolidin-2-yl)methyl)-N-methylbenzamido)methyl)nicotinic acid]
EC50: 0.087 µM
Fold drop in potency vs. 2-chloropyridine analog: 87.0 fold
Human β3-AR Agonist Activity (%): 111%

CN(Cc1cncc(C(=O)O)c1)C(=O)c1ccc(C[C@@H]2CC[C@H]([C@H](O)c3ccc(Cl)cc3)N2)cc1 [Example 33-G, 5-((4-(((2S,5R)-5-((R)-(4-chlorophenyl)(hydroxy)methyl)pyrrolidin-2-yl)methyl)-N-methylbenzamido)methyl)nicotinic acid]
EC50: 0.063 µM
Fold drop in potency vs. 2-chloropyridine analog: 1.4 fold
Human β3-AR Agonist Activity (%): 102%

COC(=O)c1cncc(CN(C)C(=O)c2ccc(C[C@@H]3CC[C@H]([C@H](O)c4ccc(Cl)nc4)N3)cc2)c1 [Example 34-A, Methyl 5-((4-(((2S,5R)-5-((R)-(6-chloropyridin-3-yl)(hydroxy)methyl)pyrrolidin-2-yl)methyl)-N-methylbenzamido)methyl)nicotinate]
EC50: 0.006 µM
Human β3-AR Agonist Activity (%): 90%

COC(=O)c1cncc(CN(C)C(=O)c2ccc(C[C@@H]3CC[C@H]([C@H](O)c4ccccc4)N3)cc2)c1 [Example 34-B, Methyl 5-((4-(((2S,5R)-5-((R)-hydroxy(phenyl)methyl)pyrrolidin-2-yl)methyl)-N-methylbenzamido)methyl)nicotinate]
EC50: 0.014 µM
Fold drop in potency vs. 2-chloropyridine analog: 2.3 fold
Human β3-AR Agonist Activity (%): 101%

COC(=O)c1cncc(CN(C)C(=O)c2ccc(C[C@@H]3CC[C@H]([C@H](O)c4ccc(Cl)cc4)N3)cc2)c1 [Example 34-G, Methyl 5-((4-(((2S,5R)-5-((R)-(4-chlorophenyl)(hydroxy)methyl)pyrrolidin-2-yl)methyl)-N-methylbenzamido)methyl)nicotinate]
EC50: 0.018 µM
Fold drop in potency vs. 2-chloropyridine analog: 2.9 fold
Human β3-AR Agonist Activity (%): 90%

CN(Cc1cncc(C#N)c1)C(=O)c1ccc(C[C@@H]2CC[C@H]([C@H](O)c3ccc(Cl)nc3)N2)cc1 [Example 35-A, 4-(((2S,5R)-5-((R)-(6-chloropyridin-3-yl)(hydroxy)methyl)pyrrolidin-2-yl)methyl)-N-((5-cyanopyridin-3-yl)methyl)-N-methylbenzamide]
EC50: 0.017 µM
Human β3-AR Agonist Activity (%): 91%

CN(Cc1cncc(C#N)c1)C(=O)c1ccc(C[C@@H]2CC[C@H]([C@H](O)c3ccccc3)N2)cc1 [Example 35-B, N-((5-cyanopyridin-3-yl)methyl)-4-(((2S,5R)-5-((R)-hydroxy(phenyl)methyl)pyrrolidin-2-yl)methyl)-N-methylbenzamide]
EC50: 0.062 µM
Fold drop in potency vs. 2-chloropyridine analog: 3.6 fold
Human β3-AR Agonist Activity (%): 102%

Cc1nnc(-c2cncc(CN(C)C(=O)c3ccc(C[C@@H]4CC[C@H]([C@H](O)c5ccc(Cl)nc5)N4)cc3)c2)o1 [Example 36-A, 4-(((2S,5R)-5-((R)-(6-chloropyridin-3-yl)(hydroxy)methyl)pyrrolidin-2-yl)methyl)-N-methyl-N-((5-(5-methyl-1,3,4-oxadiazol-2-yl)pyridin-3-yl)methyl)benzamide]
EC50: 0.014 µM
Human β3-AR Agonist Activity (%): 92%

Cc1nnc(-c2cncc(CN(C)C(=O)c3ccc(C[C@@H]4CC[C@H]([C@H](O)c5ccccc5)N4)cc3)c2)o1 [Example 36-B, 4-(((2S,5R)-5-((R)-hydroxy(phenyl)methyl)pyrrolidin-2-yl)methyl)-N-methyl-N-((5-(5-methyl-1,3,4-oxadiazol-2-yl)pyridin-3-yl)methyl)benzamide]
EC50: 0.059 µM
Fold drop in potency vs. 2-chloropyridine analog: 4.3 fold
Human β3-AR Agonist Activity (%): 101%

CN(Cc1cncc(-c2nnn[nH]2)c1)C(=O)c1ccc(C[C@@H]2CC[C@H]([C@H](O)c3ccc(Cl)nc3)N2)cc1 [Example 37-A, N-((5-(1H-tetrazol-5-yl)pyridin-3-yl)methyl)-4-(((2S,5R)-5-((R)-(6-chloropyridin-3-yl)(hydroxy)methyl)pyrrolidin-2-yl)methyl)-N-methylbenzamide]
EC50: 0.027 µM
Human β3-AR Agonist Activity (%): 94%

CN(Cc1cncc(-c2nn[nH]n2)c1)C(=O)c1ccc(C[C@@H]2CC[C@H]([C@H](O)c3ccccc3)N2)cc1 [Example 37-B, N-((5-(1H-tetrazol-5-yl)pyridin-3-yl)methyl)-4-(((2S,5R)-5-((R)-hydroxy(phenyl)methyl)pyrrolidin-2-yl)methyl)-N-methylbenzamide]
EC50: 0.063 µM
Fold drop in potency vs. 2-chloropyridine analog: 2.4 fold
Human β3-AR Agonist Activity (%): 101%

CN(Cc1cncc(F)c1)C(=O)c1ccc(C[C@@H]2CC[C@H]([C@H](O)c3ccc(Cl)nc3)N2)cc1 [Example 38-A, 4-(((2S,5R)-5-((R)-(6-chloropyridin-3-yl)(hydroxy)methyl)pyrrolidin-2-yl)methyl)-N-((5-fluoropyridin-3-yl)methyl)-N-methylbenzamide]
EC50: 0.008 µM
Human β3-AR Agonist Activity (%): 58%

CN(Cc1cncc(F)c1)C(=O)c1ccc(C[C@@H]2CC[C@H]([C@H](O)c3ccccc3)N2)cc1 [Example 38-B, N-((5-fluoropyridin-3-yl)methyl)-4-(((2S,5R)-5-((R)-hydroxy(phenyl)methyl)pyrrolidin-2-yl)methyl)-N-methylbenzamide]
EC50: 0.007 µM
Fold drop in potency vs. 2-chloropyridine analog: 0.9 fold
Human β3-AR Agonist Activity (%): 100%

Cc1cc(CN(C)C(=O)c2ccc(C[C@@H]3CC[C@H]([C@H](O)c4ccc(Cl)nc4)N3)cc2)cnc1F [Example 39-A, 4-(((2S,5R)-5-((R)-(6-chloropyridin-3-yl)(hydroxy)methyl)pyrrolidin-2-yl)methyl)-N-((6-fluoro-5-methylpyridin-3-yl)methyl)-N-methylbenzamide]
EC50: 0.001 µM
Human β3-AR Agonist Activity (%): 96%

Cc1cc(CN(C)C(=O)c2ccc(C[C@@H]3CC[C@H]([C@H](O)c4ccccc4)N3)cc2)cnc1F [Example 39-B]
EC50: 0.002 µM
Fold drop in potency vs. 2-chloropyridine analog: 3.8 fold
Human β3-AR Agonist Activity (%): 104%

Cc1cc(CN(C)C(=O)c2ccc(C[C@@H]3CC[C@H]([C@H](O)c4cccnc4)N3)cc2)cnc1F [Example 39-H]
EC50: 0.007 µM
Fold drop in potency vs. 2-chloropyridine analog: 14.1 fold
Human β3-AR Agonist Activity (%): 103%

CN(Cc1cnccn1)C(=O)c1ccc(C[C@@H]2CC[C@H]([C@H](O)c3ccc(Cl)nc3)N2)cc1 [Example 40-A, 4-(((2S,5R)-5-((R)-(6-chloropyridin-3-yl)(hydroxy)methyl)pyrrolidin-2-yl)methyl)-N-methyl-N-(pyrazin-2-ylmethyl)benzamide]
EC50: 0.012 µM
Human β3-AR Agonist Activity (%): 111%

CN(Cc1cnccn1)C(=O)c1ccc(C[C@@H]2CC[C@H]([C@H](O)c3ccccc3)N2)cc1 [Example 40-B, 4-(((2S,5R)-5-((R)-hydroxy(phenyl)methyl)pyrrolidin-2-yl)methyl)-N-methyl-N-(pyrazin-2-ylmethyl)benzamide]
EC50: 0.017 µM
Fold drop in potency vs. 2-chloropyridine analog: 1.5 fold
Human β3-AR Agonist Activity (%): 99%

CN(Cc1cnccn1)C(=O)c1ccc(C[C@@H]2CC[C@H]([C@H](O)c3cccc(Cl)c3)N2)cc1 [Example 40-D, 4-(((2S,5R)-5-((R)-(3-chlorophenyl)(hydroxy)methyl)pyrrolidin-2-yl)methyl)-N-methyl-N-(pyrazin-2-ylmethyl)benzamide]
EC50: 0.567 µM
Fold drop in potency vs. 2-chloropyridine analog: 48.6 fold
Human β3-AR Agonist Activity (%): 86%

CN(Cc1cnccn1)C(=O)c1ccc(C[C@@H]2CC[C@H]([C@H](O)c3ccc(Cl)cc3)N2)cc1 [Example 40-G, 4-(((2S,5R)-5-((R)-(4-chlorophenyl)(hydroxy)methyl)pyrrolidin-2-yl)methyl)-N-methyl-N-(pyrazin-2-ylmethyl)benzamide]
EC50: 0.019 µM
Fold drop in potency vs. 2-chloropyridine analog: 1.6 fold
Human β3-AR Agonist Activity (%): 100%

CN(Cc1cnccn1)C(=O)c1ccc(C[C@@H]2CC[C@H]([C@H](O)c3cncc(F)c3)N2)cc1 [Example 40-R, 4-(((2S,5R)-5-((R)-(5-fluoropyridin-3-yl)(hydroxy)methyl)pyrrolidin-2-yl)methyl)-N-methyl-N-(pyrazin-2-ylmethyl)benzamide]
EC50: 0.373 µM
Fold drop in potency vs. 2-chloropyridine analog: 32.0 fold
Human β3-AR Agonist Activity (%): 87%

Cc1cc([C@@H](O)[C@H]2CC[C@@H](Cc3ccc(C(=O)N(C)Cc4cnccn4)cc3)N2)cnc1Cl [Example 40-S, 4-(((2S,5R)-5-((R)-(6-chloro-5-methylpyridin-3-yl)(hydroxy)methyl)pyrrolidin-2-yl)methyl)-N-methyl-N-(pyrazin-2-ylmethyl)benzamide]
EC50: 3.13 µM
Fold drop in potency vs. 2-chloropyridine analog: 268.2 fold
Human β3-AR Agonist Activity (%): 60%

CC(c1cnccn1)N(C)C(=O)c1ccc(C[C@@H]2CC[C@H]([C@H](O)c3ccc(Cl)nc3)N2)cc1 (stereo partly drawn) [Example 41-A, 4-(((2S,5R)-5-((R)-(6-chloropyridin-3-yl)(hydroxy)methyl)pyrrolidin-2-yl)methyl)-N-methyl-N-(1-(pyrazin-2-yl)ethyl)benzamide]
EC50: 0.002 µM
Human β3-AR Agonist Activity (%): 98%
